Data published in ChEMBL document CHEMBL1127948, “Synthesis and in vitro cytotoxicity of diastereoisomerically modified dolastatin 15 analogues” (Bioorg Med Chem Lett, 1994).

What was measured:
Lymphoma cell line = experiment: Antiproliferative effect against human lymphoma cells was determined; (0.012 to 0.12 nM); assay type: functional, cell-based
[1] = test system: Panel leukemia (Carcinoma cell lines); experiment: Antiproliferative effect against continuous human leukemia cell lines and peripheral blood cells from patients with acute myeloid leukemia was determined; (0.1 to 1 nM); assay type: functional, cell-based
Jurkat = experiment: In vitro growth factor-independent proliferation against human leukemia T cell line jurkat was determined; assay type: functional, cell-based
L1210 = experiment: In vitro growth factor-independent proliferation against murine leukemia L1210 was determined; assay type: functional, cell-based, Mus musculus
Osteoclast-like = experiment: In vitro growth factor-dependent proliferation against murine bone marrow cell was determined; assay type: functional, cell-based, Mus musculus
CTLL = experiment: In vitro interleukin-2-dependent proliferation of the murine cytotoxlc T cell line (CTLL) was determined; assay type: functional, cell-based, Mus musculus

| SMILES | IC50 (Lymphoma cell line) [nM] | IC50 [1] [nM] | IC50 (Jurkat) [nM] | IC50 (L1210; Mus musculus, L1210) [nM] | IC50 (Osteoclast-like; Mus musculus, Osteoclast-like) [nM] | IC50 (CTLL; Mus musculus, CTLL) [nM] | IC50 (L1210; l1210) [nM] | IC50 (Osteoclast-like; osteoclast-like) [nM] | IC50 (CTLL; ctll) [nM] |
| --- | --- | --- | --- | --- | --- | --- | --- | --- | --- |
| COC1=CC(=O)N(C(=O)[C@@H](OC(=O)[C@@H]2CCCN2C(=O)[C@@H]2CCCN2C(=O)[C@H](C(C)C)N(C)C(=O)[C@@H](NC(=O)[C@H](C(C)C)N(C)C)C(C)C)C(C)C)[C@H]1Cc1ccccc1 [DOLASTATIN 15] | 0.012 | 0.1 | 5 | 0.15 | 17 | 3 | – | – | – |
| COC1=CC(=O)N(C(=O)[C@H](OC(=O)[C@@H]2CCCN2C(=O)[C@@H]2CCCN2C(=O)[C@H](C(C)C)N(C)C(=O)[C@@H](NC(=O)[C@H](C(C)C)N(C)C)C(C)C)C(C)C)[C@@H]1Cc1ccccc1 | – | – | 700 | 1.78 | 120 | 400 | – | – | – |
| COC1=CC(=O)N(C(=O)[C@H](OC(=O)[C@@H]2CCCN2C(=O)[C@@H]2CCCN2C(=O)[C@H](C(C)C)N(C)C(=O)[C@@H](NC(=O)[C@H](C(C)C)N(C)C)C(C)C)C(C)C)[C@H]1Cc1ccccc1 (stereo in doubt; form 1) | – | – | 10 | 0.3 | 40 | 8 | – | – | – |
| COC1=CC(=O)N(C(=O)[C@H](OC(=O)[C@@H]2CCCN2C(=O)[C@@H]2CCCN2C(=O)[C@H](C(C)C)N(C)C(=O)[C@@H](NC(=O)[C@H](C(C)C)N(C)C)C(C)C)C(C)C)[C@H]1Cc1ccccc1 (stereo in doubt; form 2) | – | – | – | – | – | – | 0.31 | 50 | 10 |
